Molecules are shown by their SMILES.

By ED50 is commonly meant the dose at which the effect has come halfway, by size or by number of responders.

The subject of the assay is male guinea-pigs. Nature of the assay: animal or person. It is filed as in vivo. Conditions: Cavia porcellus, ip, 2 h, read-out: Antitussive activity ED50-value (i.p.).
Turning to `COc1ccc2c3c1O[C@H]1[C@@H](O)C=C[C@H]4[C@@H](C2)N(C)CC[C@@]341` [L, Codeine phosphate, reference compound], the ED50 was 12.2 mg/kg.
On to `COc1ccccc1N1CCN(C(Cc2cccc(C)c2)c2ccccc2)CC1` (racemic) [Compound 31, dl-1-(2-Methoxyphenyl)-4-[1-phenyl-2-(3-tolyl)ethyl]-piperazine], for which the ED50 was around 6 mg/kg.
As to `COc1ccccc1N1CCN(C(Cc2cccc(C)c2)c2ccccc2)CC1` (stereo not drawn) [Compound 32, l-1-(2-Methoxyphenyl)-4-[1-phenyl-2-(3-tolyl)ethyl]piperazine], the ED50 is around 6 mg/kg.

(Values after patent US4162316A (priority 1975, dated 1979).)
